From US20260070895A1, “CRYSTALLINE FORMS” (QUIMATRYX, S.L., priority 2022, published 2026)
Entries after “also recorded” stand apart in the source; their conditions may differ.

Tests used:
Type in all cases: physicochemical
[1] = Photostability at solid state (chemical purity by HPLC after illumination); settings: for HPLC peak area, QTX125 RRT 1.00 / HPLC peak area, RRT 1.04 / HPLC peak area, RRT 1.12 / degradation (in words) / colour change of the solid material: solid-state; for degradation (in words): up to 171 hours
Procedure: (§1) The method for determining purity by HPLC—used throughout these examples—used the following parameters:
(§2) The photostability of novel crystalline forms of QTX125 was assessed at solid state and in solution. Where ‘forced illumination’ conditions were used, samples were illuminated at 12 Klux/hour and 2.8 UV W/m^2/hour. Samples were stored at a temperature of 30° C. Following incubation, the chemical purity of QTX125 was measured by HPLC.
(§3) The following index is provided to aid navigation of the data presented in Tables 3.1.1 to 3.3.6: • 3.1.x—Assessment of the photostability of QTX125 Form 2. • 3.2.x—Assessment of the photostability of amorphous QTX125. • 3.3.x—Assessment of the photostability of the QTX125 1:2 L-Lysine adduct. • 3.x.1—Samples (at solid state) stored in unsealed clear glass bottles, subject to forced illumination. • 3.x.2—Samples (at solid state) sealed under nitrogen in clear glass bottles, subject to forced illumination. • 3.x.3—Samples (at solid state) sealed under nitrogen in amber glass bottles, illuminated under ambient laboratory conditions • 3.x.4—Samples (at solid state) sealed under nitrogen in amber glass bottles, subject to forced illumination. • 3.x.5—Samples (in solution) sealed under nitrogen in amber glass bottles, illuminated under ambient laboratory conditions. • 3.x.6—Samples (in solution) sealed under nitrogen in amber glass bottles, subject to forced illumination.

[2] = Photostability in solution (THF and water), HPLC; settings: for HPLC peak area, QTX125 RRT 1.00 / HPLC peak area, RRT 1.04 / HPLC peak area, RRT 1.12 / degradation (in words): in solution (THF and water), sealed under nitrogen in amber glass bottles; for degradation (in words): up to 171 hours
Procedure: as §1, §2, §3

[3] = Aqueous solubility at 37° C. (HPLC of filtered suspension); settings: for peak solubility: at 1 hour
Procedure: The solubility of novel crystalline forms of QTX125 was assessed in the following aqueous solutions: (i) phosphate buffer, pH 3.5, 0.9% w/v sodium chloride; (ii) phosphate buffer, pH 6.5, 0.9% w/v sodium chloride; (iii) acetate buffer, pH 4.5, 0.9% w/v sodium chloride; (iv) citro-phosphate buffer, pH 4.5, 0.9% w/v sodium chloride; (v) sodium chloride, 0.9% w/v and (vi) deionised water. All assays were completed at 37° C.
In brief, 30 mg QTX125 was dispensed into vessels followed by 5 mL of the appropriate aqueous buffer. Mixtures were suspended by agitation and heated to 37° C. At various fixed intervals, an 0.4 mL aliquot of the suspension was removed, filtered and diluted for examination by HPLC. A single HPLC reference sample was used.

[4] = sealed under nitrogen in amber glass bottles, ambient laboratory conditions, 0 hours
[5] = sealed under nitrogen in amber glass bottles, ambient laboratory conditions, 3 hours
[6] = sealed under nitrogen in amber glass bottles, ambient laboratory conditions, 50 hours
[7] = sealed under nitrogen in amber glass bottles, ambient laboratory conditions, 171 hours
[8] = sealed under nitrogen in amber glass bottles, forced illumination, 171 hours
[9] = sealed under nitrogen in clear glass bottles, forced illumination
[10] = sealed under nitrogen in clear glass bottles, forced illumination, 0 hours
[11] = sealed under nitrogen in clear glass bottles, forced illumination, 3 hours
[12] = sealed under nitrogen in clear glass bottles, forced illumination, 50 hours
[13] = sealed under nitrogen in clear glass bottles, forced illumination, 171 hours
[14] = unsealed clear glass bottles, forced illumination
[15] = unsealed clear glass bottles, forced illumination, 0 hours
[16] = unsealed clear glass bottles, forced illumination, 3 hours
[17] = unsealed clear glass bottles, forced illumination, 50 hours
[18] = unsealed clear glass bottles, forced illumination, 171 hours
[19] = ambient laboratory conditions, 171 hours

NCCCC[C@H](N)C(=O)O.NCCCC[C@H](N)C(=O)O.O=C(NO)c1ccc(CNC(=O)c2[nH]c(-c3ccc(O)cc3)cc2-c2ccoc2)cc1 [QTX125 1:2 L-Lysine adduct]
photostability as compared to amorphous QTX125 ([1]; at solid state): enhanced photostability; also recorded: improved photostability | HPLC peak area, QTX125 RRT 1.00 [1, 4]: 96.83% | HPLC peak area, RRT 1.04 [1, 4]: 1.15% | HPLC peak area, QTX125 RRT 1.00 [1, 5]: 96.82% | HPLC peak area, RRT 1.04 [1, 5]: 1.21% | HPLC peak area, QTX125 RRT 1.00 [1, 6]: 97.84% | HPLC peak area, RRT 1.04 [1, 6]: 0.58% | HPLC peak area, QTX125 RRT 1.00 [1, 7]: 97.29% | HPLC peak area, RRT 1.04 [1, 7]: 1.30% | HPLC peak area, RRT 1.12 [1, 7]: 0.35% | degradation (in words) ([1]; sealed under nitrogen in amber glass bottles, ambient laboratory conditions): little evidence of degradation | HPLC peak area, QTX125 RRT 1.00 [1, 8]: 96.27% | HPLC peak area, RRT 1.04 [1, 8]: 1.74% | HPLC peak area, RRT 1.12 [1, 8]: 0.59% | degradation (in words) ([1]; sealed under nitrogen in amber glass bottles, forced illumination): degrades slightly | colour change of the solid material [1, 9]: A change in the colour of the solid material was not identified | HPLC peak area, QTX125 RRT 1.00 [1, 10]: 96.83% | HPLC peak area, RRT 1.04 [1, 10]: 1.15% | HPLC peak area, QTX125 RRT 1.00 [1, 11]: 95.57% | HPLC peak area, RRT 1.04 [1, 11]: 1.90% | HPLC peak area, RRT 1.12 [1, 11]: 0.65% | HPLC peak area, QTX125 RRT 1.00 [1, 12]: 89.67% | HPLC peak area, RRT 1.04 [1, 12]: 5.79% | HPLC peak area, RRT 1.12 [1, 12]: 2.74% | HPLC peak area, QTX125 RRT 1.00 [1, 13]: 85.21% | HPLC peak area, RRT 1.04 [1, 13]: 9.04% | HPLC peak area, RRT 1.12 [1, 13]: 3.94% | degradation (in words) [1, 9]: degrades under forced illumination to two principal components | colour change of the solid material [1, 14]: A change in the colour of the solid material was not identified | HPLC peak area, QTX125 RRT 1.00 [1, 15]: 96.83% | HPLC peak area, RRT 1.04 [1, 15]: 1.15% | HPLC peak area, QTX125 RRT 1.00 [1, 16]: 95.51% | HPLC peak area, RRT 1.04 [1, 16]: 1.98% | HPLC peak area, QTX125 RRT 1.00 [1, 17]: 88.96% | HPLC peak area, RRT 1.04 [1, 17]: 6.16% | HPLC peak area, RRT 1.12 [1, 17]: 3.08% | HPLC peak area, QTX125 RRT 1.00 [1, 18]: 84.14% | HPLC peak area, RRT 1.04 [1, 18]: 9.20% | HPLC peak area, RRT 1.12 [1, 18]: 4.38% | degradation (in words) [1, 14]: degrades under forced illumination to two principal components | HPLC peak area, QTX125 RRT 1.00 [2, 19]: 93.18% | HPLC peak area, RRT 1.04 [2, 19]: 1.50% | HPLC peak area, RRT 1.12 [2, 19]: 0.97% | degradation (in words) ([2]; ambient laboratory conditions): degrades | HPLC peak area, QTX125 RRT 1.00 ([2]; forced illumination, 0 hours): 96.83% | HPLC peak area, RRT 1.04 ([2]; forced illumination, 0 hours): 1.15% | HPLC peak area, QTX125 RRT 1.00 ([2]; forced illumination, 3 hours): 98.01% | HPLC peak area, RRT 1.04 ([2]; forced illumination, 3 hours): 0.71% | HPLC peak area, RRT 1.12 ([2]; forced illumination, 3 hours): 0.33% | HPLC peak area, QTX125 RRT 1.00 ([2]; forced illumination, 50 hours): 84.17% | HPLC peak area, RRT 1.04 ([2]; forced illumination, 50 hours): 1.03% | HPLC peak area, RRT 1.12 ([2]; forced illumination, 50 hours): 2.14% | HPLC peak area, QTX125 RRT 1.00 ([2]; forced illumination, 171 hours): 89.96% | HPLC peak area, RRT 1.04 ([2]; forced illumination, 171 hours): 2.82% | HPLC peak area, RRT 1.12 ([2]; forced illumination, 171 hours): 1.17% | degradation (in words) ([2]; forced illumination): degrades | photostability as compared to amorphous QTX125 and Form 2 ([2]; in solution, amber glass bottles, ambient laboratory conditions, 171 hours): enhanced photostability | photostability as compared to amorphous QTX125 or Form 2 ([2]; in solution, amber glass bottles, forced illumination, 171 hours): enhanced photostability | photostability as compared to both QTX125 Form 2 and amorphous QTX125 ([2]; stored in solution (conclusion)): improved photostability | solubility in a saline solution compared to other forms, including an amorphous form [3]: more soluble | PXRD analysis of the solid recovered at 24 hours ([3]; aqueous buffer, 37° C.): identified the precipitating entity as Form 2 | concentration of QTX125 (solubility) ([3]; buffer (i) phosphate buffer, pH 3.5, 0.9% w/v sodium chloride, 37° C., 1 hour): 0.28 µg/mL | concentration of QTX125 (solubility) ([3]; buffer (i) phosphate buffer, pH 3.5, 0.9% w/v sodium chloride, 37° C., 4 hours): 0.33 µg/mL | concentration of QTX125 (solubility) ([3]; buffer (i) phosphate buffer, pH 3.5, 0.9% w/v sodium chloride, 37° C., 7 hours): 0.23 µg/mL | concentration of QTX125 (solubility) ([3]; buffer (i) phosphate buffer, pH 3.5, 0.9% w/v sodium chloride, 37° C., 24 hours): 0.34 µg/mL | concentration of QTX125 (solubility) ([3]; buffer (ii) phosphate buffer, pH 6.5, 0.9% w/v sodium chloride, 37° C., 1 hour): 0.32 µg/mL | concentration of QTX125 (solubility) ([3]; buffer (ii) phosphate buffer, pH 6.5, 0.9% w/v sodium chloride, 37° C., 4 hours): 0.24 µg/mL | concentration of QTX125 (solubility) ([3]; buffer (ii) phosphate buffer, pH 6.5, 0.9% w/v sodium chloride, 37° C., 7 hours): 0.39 µg/mL | concentration of QTX125 (solubility) ([3]; buffer (ii) phosphate buffer, pH 6.5, 0.9% w/v sodium chloride, 37° C., 24 hours): 0.28 µg/mL | concentration of QTX125 (solubility) ([3]; buffer (iii) acetate buffer, pH 4.5, 0.9% w/v sodium chloride, 37° C., 1 hour): 0.25 µg/mL | concentration of QTX125 (solubility) ([3]; buffer (iii) acetate buffer, pH 4.5, 0.9% w/v sodium chloride, 37° C., 4 hours): 0.35 µg/mL | concentration of QTX125 (solubility) ([3]; buffer (iii) acetate buffer, pH 4.5, 0.9% w/v sodium chloride, 37° C., 7 hours): 0.35 µg/mL | concentration of QTX125 (solubility) ([3]; buffer (iii) acetate buffer, pH 4.5, 0.9% w/v sodium chloride, 37° C., 24 hours): 0.33 µg/mL | concentration of QTX125 (solubility) ([3]; buffer (iv) citro-phosphate buffer, pH 4.5, 0.9% w/v sodium chloride, 37° C., 1 hour): 0.33 µg/mL | concentration of QTX125 (solubility) ([3]; buffer (iv) citro-phosphate buffer, pH 4.5, 0.9% w/v sodium chloride, 37° C., 4 hours): 0.29 µg/mL | concentration of QTX125 (solubility) ([3]; buffer (iv) citro-phosphate buffer, pH 4.5, 0.9% w/v sodium chloride, 37° C., 7 hours): 0.37 µg/mL | concentration of QTX125 (solubility) ([3]; buffer (iv) citro-phosphate buffer, pH 4.5, 0.9% w/v sodium chloride, 37° C., 24 hours): 0.27 µg/mL | concentration of QTX125 (solubility) ([3]; buffer (v) sodium chloride, 0.9% w/v, 37° C., 1 hour): 29.81 µg/mL | concentration of QTX125 (solubility) ([3]; buffer (v) sodium chloride, 0.9% w/v, 37° C., 4 hours): 16.91 µg/mL | concentration of QTX125 (solubility) ([3]; buffer (v) sodium chloride, 0.9% w/v, 37° C., 7 hours): 8.51 µg/mL | concentration of QTX125 (solubility) ([3]; buffer (v) sodium chloride, 0.9% w/v, 37° C., 24 hours): 4.52 µg/mL | concentration of QTX125 (solubility) ([3]; buffer (vi) deionised water, 37° C., 1 hour): 24.5 µg/mL | concentration of QTX125 (solubility) ([3]; buffer (vi) deionised water, 37° C., 4 hours): 16.22 µg/mL | concentration of QTX125 (solubility) ([3]; buffer (vi) deionised water, 37° C., 7 hours): 10.14 µg/mL | concentration of QTX125 (solubility) ([3]; buffer (vi) deionised water, 37° C., 24 hours): 7.76 µg/mL | solubility (in words) ([3]; buffers (i) to (iv), 37° C.): very low | peak solubility ([3]; deionised water (buffer vi), 37° C., listed as 1:2 L-Lysine adduct): 24.5 µg/mL | peak solubility ([3]; deionised water (buffer vi), 37° C., listed as adduct): 24.5 µg/mL | peak solubility ([3]; sodium chloride 0.9% w/v (buffer v), 37° C., listed as 1:2 L-Lysine adduct): 29.81 µg/mL | peak solubility ([3]; sodium chloride 0.9% w/v (buffer v), 37° C., listed as adduct): 29.81 µg/mL
